Assay results published in patent US20170112775A1, “SITU SELF-ASSEMBLING PRO-NANOPARTICLE COMPOSITIONS AND METHODS OF PREPARATION AND USE THEREOF” (University of North Texas Health Science Center, priority 2015, published 2017).
Counter-ions that a name gives are not always drawn. Like-named read-outs stand apart in the source and are kept apart here. Values belong to the molecule of their own block, whether it stands above or below them.

Experiments:
[1] = cited from earlier work
[2] = system: DU145 resistant prostate cancer cell line; assay: MTT cytotoxicity, DU145 resistant; type: cell-based, human; details: for IC50: Homo sapiens, 72 hr, MTT
Experimental: (§1) The cytotoxicity of DTX MT NPs was tested in PC3 and DU145 sensitive and resistant cell using MTT [3-(4,5-dimethylthiazol-2-yl)-2,5-diphenyltetrazolium bromide] assay. Cells were seeded into 96-well plates with a density of 7,000 cells/well and incubated at 37° C. for 24 hr under 5% CO2. Following that, cells were treated with a drug equivalent concentration ranging from 0.5-10,000 nM for DTX, DTX MT NPs, and blank NPs. Due to low water solubility, DTX was dissolved with DMSO. After 72 hr of incubation, the medium was removed from each well and replaced with 90 μL of DMEM medium without phenol red and 10 μL of MTT (5 mg/mL in PBS). The plates were incubated at 37° C. with 5% CO2 for 4 hr. Formazan produced by mitochondria enzymes of living cells was dissolved in 150 μL of isopropanol containing 0.04 N HCl for 5 min. The absorbance was measured at a test wavelength of 570 nm and a reference wavelength of 650 nm in a microplate reader (Synergy H1 hybrid Multi-Mode Microplate Reader)
The cytotoxicity of CUR MT NPs was tested in DU145 and PC-3 human prostate cancer cell lines using MTT [3-(4,5-dimethylthiazol-2-yl)-2,5-diphenyltetrazolium bromide] assay. Cells were seeded into 96-well plates at 7,000 cells/well and incubated 37° C. for 24 hr under 5% CO2. After overnight incubation, cells were treated with drug concentration ranging from 0-27 μM for CUR, CUR MT NPs, and blank NPs. Due to low water solubility, CUR was dissolved with DMSO. After 72 hr of incubation, the medium was removed from each well and replaced with 90 μL of DMEM medium without phenol read and MTT (10 μL of 5 mg/mL in PBS). After incubating for 4 hr at 37° C. with 5% CO2, 0.04 N HCl/isopropanol was added to each well and incubated for 5 min to dissolve formazan crystals formed by viable cells. The absorbance was measured at a test wavelength of 570 nm and a reference wavelength of 650 nm in a microplate reader (Beckman Coulter, Inc.).

[3] = Solubility screening in oils and surfactants; type: physicochemical
Experimental: These studies were performed to test the solubility of RTV in oils and surfactants. Briefly, oils and surfactants were accurately weighed into glass vials. Certain amounts of […] were added into the glass vials. The vials were stirred on the hot plate maintained at 65° C. for 3 min. The solubilization was monitored by eyes and the drug solubility (w/w) was estimated.
These studies were performed to test the solubility in oils and surfactants. The solubility of DTX was determined in oils (oleic acid, Migloyl 812, Kollisolv® MCT70, Kolliwax® GMSI, Imwitor® 960, and Labrafac) and surfactants (TPGS, Poloxamer 188, Tween 20, and Tween 80). Oils and surfactants were accurately weighed into glass vials. Excess amounts of DTX were added into glass vials containing vehicles. The vials were stirred on the hot plate maintained at 65° C. for 3 min. The drug solubility (w/w) was calculated.
These studies were performed to test the solubility in oils and surfactants. The solubility of CUR was determined in oils (Migloyl 812 N, Migloyl 829, Imwitor 491, Kollisolv MCT70, labrafac, Imwitor 900K, Imwitor 960 and Campriltol 888) and surfactants (Tween 20, Tween 80, Labrasol, Poloxamer 188, TPGS and Gelucire 44/14). Oils and surfactants were accurately weighed into glass vials. Excess amounts of CUR were added into glass vials containing vehicles. The vials were stirred on the hot plate maintained at 65° C. for 3 min. The drug solubility (w/w) was calculated.

[4] = system: PC3 resistant prostate cancer cell line; assay: MTT cytotoxicity, PC3 resistant; type: cell-based; details: Homo sapiens, 72 hr
Experimental: as §1, with “Formazan produced by mitochondria enzymes of living cells was dissolved in 150 μL of isopropanol containing 0.04 N HCl for 5 min.” left out
(§2) The cytotoxicity of CUR MT NPs was tested in DU145 and PC-3 human prostate cancer cell lines using MTT [3-(4,5-dimethylthiazol-2-yl)-2,5-diphenyltetrazolium bromide] assay. […] After 72 hr of incubation, the medium was removed from each well and replaced with 90 μL of DMEM medium without phenol read and MTT (10 μL of 5 mg/mL in PBS). […] The absorbance was measured at a test wavelength of 570 nm and a reference wavelength of 650 nm in a microplate reader (Beckman Coulter, Inc.).

[5] = system: DU145 sensitive prostate cancer cell line; assay: MTT cytotoxicity, DU145 sensitive; type: cell-based; details: Homo sapiens, 72 hr
Experimental: as §1, with “Formazan produced by mitochondria enzymes of living cells was dissolved in 150 μL of isopropanol containing 0.04 N HCl for 5 min.” left out
as §2

[6] = system: PC3 sensitive prostate cancer cell line; assay: MTT cytotoxicity, PC3 sensitive; type: cell-based; details: Homo sapiens, 72 hr
Experimental: as §1, with “Formazan produced by mitochondria enzymes of living cells was dissolved in 150 μL of isopropanol containing 0.04 N HCl for 5 min.” left out
as §2

cancer cells = details: cited from earlier work
[7] = PK study after subcutaneous injection; type: in vivo, Sprague Dawley rats; details: male, Sprague Dawley, rat, plasma, sc, after 6 days, one subcutaneous injection of LPV/RTV ISNPs
Experimental: Animal studies were performed in compliance with guidelines set by the University of North Texas Health Science Center Institutional Animal Care and Use Committees. Rats were housed in groups of 2 under a 12-h light/dark cycle with free access to food and water for 1 week before use. Sprague Dawley rats (males, 276-300 g, n=4) were purchased from Charles River Laboratories (Wilmington, Mass.). Pharmacokinetic studies were conducted to evaluate the pharmacokinetic profiles of LPV and RTV from LPV/RTV ISNPs. Rats were treated with 100 ul of LPV/RTV ISNPs to provide 100 mg/kg of LPV by subcutaneous injection. After the injection, the inventor collected the blood at 0, 1, 2, 3, 5, 6, 24 hours and 2, 3, 4, 5, 6 days. The blood was immediately centrifuged at 3400 rpm for 5 min at 4° C., and 100 ul of plasma samples were transferred to a new tube and stored at −20° C. until further analysis within 3 weeks. LPV and RTV concentrations in the plasma were determined by liquid chromatography-mass spectrometry (LC-MS, an Agilent G6460 Triple Quad LC-MS system) using a previously reported method.

Structure (SMILES): COC(=O)N[C@H](C(=O)N[C@@H](Cc1ccccc1)[C@@H](O)CN(Cc1ccc(-c2ccccn2)cc1)NC(=O)[C@@H](NC(=O)OC)C(C)(C)C)C(C)(C)C [ATV, atazanavir]
Bioavailability ([1]; without food): about 20%

Structure (SMILES): COc1cc(/C=C/C(=O)CC(=O)/C=C/c2ccc(O)c(OC)c2)ccc1O [Curcumin]
IC50 ([2]; DU-145 resistance): 10 ± 0.5 µM
IC50 higher in resistant DU145 than in sensitive DU145 ([2]; resistant vs sensitive DU145): 1.4 fold
Solubility (w/w) ([3]; in Campriltol 888, 65° C.): 0.0160 w/w
Solubility (w/w) ([3]; in Gelucire 44/14, 65° C.): 0.153 w/w
Solubility (w/w) ([3]; in Imwitor 491, 65° C.): 0.0261 w/w
Solubility (w/w) ([3]; in Imwitor 900K, 65° C.): 0.0512 w/w
Solubility (w/w) ([3]; in Imwitor 960, 65° C.): 0.0488 w/w
Solubility (w/w) ([3]; in Kollisolv MCT70, 65° C.): 0.0179 w/w
Solubility (w/w) ([3]; in Labrafac, 65° C.): 0.0120 w/w
Solubility (w/w) ([3]; in Labrasol, 65° C.): 0.173 w/w
Solubility (w/w) ([3]; in Migloyl 812 N, 65° C.): 0.0153 w/w
Solubility (w/w) ([3]; in Migloyl 829, 65° C.): 0.0210 w/w
Solubility (w/w) ([3]; in Poloxamer 188, 65° C.): 0.153 w/w
Solubility (w/w) ([3]; in TPGS, 65° C.): 0.164 w/w
Solubility (w/w) ([3]; in Tween 20, 65° C.): 0.166 w/w
Solubility (w/w) ([3]; in Tween 80, 65° C.): 0.141 w/w
IC50 ([4]; PC-3 resistance): 7.7 ± 0.1 µM
IC50 ([5]; DU-145 sensitive): 7.2 ± 0.4 µM
IC50 ([6]; PC-3 sensitive): 7.9 ± 0.3 µM
Concentration with anticancer effects (cancer cells): 5 to 30 µM

Structure (SMILES): Nc1nc(=O)n([C@@H]2CS[C@H](CO)O2)cc1F [FTC, emtricitabine]
Bioavailability ([1]; oral): over 98%

Structure (SMILES): CN(Cc1cnc2nc(N)nc(N)c2n1)c1ccc(C(=O)N[C@@H](CCC(=O)O)C(=O)O)cc1 [MTX, methotrexate]
Bioavailability ([1]; oral): 30%

Structure (SMILES): CC(C)OC(=O)OCOP(=O)(CO[C@H](C)Cn1cnc2c(N)ncnc21)OCOC(=O)OC(C)C [TDF, tenofovir disoproxil fumarate]
Bioavailability ([1]; oral): 25%

Now from value to molecule, other results behind:

Solubility (w/w) ([3]; in Imwitor 960K, 65° C.): 0.053 w/w
Solubility (w/w) ([3]; in Kollisolv MCT70, 65° C.): 0.038 w/w
Solubility (w/w) ([3]; in Kolliwax GMS I, 65° C.): 0.025 w/w
Solubility (w/w) ([3]; in Labrafac, 65° C.): 0.022 w/w
Solubility (w/w) ([3]; in Migloyl 812, 65° C.): 0.079 w/w
Solubility (w/w) ([3]; in Oleic acid, 65° C.): 0.066 w/w
Solubility (w/w) ([3]; in Poloxamer 188, 65° C.): 0.019 w/w
Solubility (w/w) ([3]; in TPGS, 65° C.): 0.008 w/w
Solubility (w/w) ([3]; in Tween 20, 65° C.): 0.052 w/w
Solubility (w/w) ([3]; in Tween 80, 65° C.): 0.082 w/w
Structure (SMILES): CC(=O)O[C@@]12CO[C@@H]1C[C@H](O)[C@@]1(C)C(=O)[C@H](O)C3=C(C)[C@@H](OC(=O)[C@H](O)[C@@H](NC(=O)OC(C)(C)C)c4ccccc4)C[C@@](O)([C@@H](OC(=O)c4ccccc4)[C@H]21)C3(C)C [docetaxel]
IC50 ([2]; DU-145, DU145 resistance): 0.87 ± 0.0854 µM
IC50 ([4]; PC3 resistance): 0.0753 ± 0.0027 µM
IC50 ([5]; DU-145, DU145 sensitive): 0.0068 ± 0.0005 µM
IC50 ([6]; PC3 sensitive): 0.007 ± 0.0004 µM

Estimated solubility ([3]; in Brij 78, 65° C.): 0.4725 mg/mg
Estimated solubility ([3]; in Glyceryl behenate, 65° C.): 0.0744 mg/mg
Estimated solubility ([3]; in Kollisolv MCT70, 65° C.): 0.0779 mg/mg
Estimated solubility ([3]; in Kolliwax GMS I, 65° C.): 0.5846 mg/mg
Estimated solubility ([3]; in Miglyo812, 65° C.): 0.0703 mg/mg
Estimated solubility ([3]; in Oleic acid, 65° C.): 1.19 mg/mg
Estimated solubility ([3]; in TPGS, 65° C.): 0.6012 mg/mg
concentration at 6 days ([7]; 100 mg/kg of LPV, read-out: LPV Ctrough): > 160 ng/mL
Structure (SMILES): Cc1cccc(C)c1OCC(=O)N[C@@H](Cc1ccccc1)[C@@H](O)C[C@H](Cc1ccccc1)NC(=O)[C@H](C(C)C)N1CCCNC1=O [lopinavir]
Estimated solubility ([3]; in Killiphor P 188/Poloxamer F68, 65° C.): 0.3431 mg/mg

concentration at 6 days ([7]; read-out: RTV Ctrough): ~50 ng/mL
Structure (SMILES): CC(C)c1nc(CN(C)C(=O)N[C@H](C(=O)N[C@@H](Cc2ccccc2)C[C@H](O)[C@H](Cc2ccccc2)NC(=O)OCc2cncs2)C(C)C)cs1 [ritonavir]
